Earlier results on one compound are cited in patent US20140088035A1, “TREATING SCHIZOPHRENIA” (THE GENERAL HOSPITAL CORPORATION, priority 2010, published 2014).

For the data set, the system named is schizophrenia patients. The conditions noted are these: vitamin supplementation regimens; Levine et al. 2006, Godfrey et al. 1990.

With `Nc1nc2ncc(CNc3ccc(C(=O)N[C@@H](CCC(=O)O)C(=O)O)cc3)nc2c(=O)[nH]1` [folate, pteroyl-L-glutamic acid], the “symptomatic improvement in schizophrenia patients” value was “associated with symptomatic improvement”.
